# Measured values taken from patent publication US5733526A, “Hydrocarbon oil/fluorochemical preparations and methods of use” (priority 1995, dated 1998).
# Legend:
# [1] = cited from earlier work; for Log Po/w: octanol/water
# [2] = Micelle formation in perfluorooctanes by FTIR (C-H stretching frequency); type: physicochemical; conditions: in F-octanes
# Protocol: A series of solutions of CF3 (CF2) 7 (CH2) 15 CH3 (F8H16; 0.02 mol/L to 0.2 mol/L) were prepared in F-octanes (purity≥98%) and the frequency of the carbon to hydrogen (--C--H) stretching mode (T=50° C.) measured using FTIR (Fourier Transform Infrared Spectroscopy). The formation of F8H16 micelles in a fluorocarbon continuous phase results in the transfer of the F8H16 hydrocarbon groups from a fluorocarbon rich environment in the molecular solution to a hydrocarbon rich environment at the interior of the micelles. The occurrence of this phase change can be measured as a change in the FTIR stretching frequency for the carbon-hydrogen bonds in the --CH2 groups of the FmHn molecules. […] The inflection point in the curve confirmed the existence of F8H16 micelles and was used to define the critical micelle concentration at about 0.05 mol/L.
# A series of solutions of CF3 (CF2) 5 (CH2) 13 CH3 (F6H14; 0.02 mol/L to 0.2 mol/L) were prepared in F-octanes (purity≥98%) and the frequency of the carbon to hydrogen (--C--H) stretching mode (T=25° C.) measured using FTIR. The formation of F6H14 micelles was measured as a change in the FTIR stretching frequency for the carbon-hydrogen bonds in the --CH2 groups of the FmHn molecules. […] The inflection point in the curve confirmed the existence of F6H14 micelles and was used to define the critical micelle concentration at about 0.1 mol/L.
# [3] = Titration of hydrocarbon oil into F-octanes until phase separation; solubilization by diblock dispersing agent; conditions: for amount of hydrocarbon oil at which phase separation occurred: titrated into F-Octanes (8.82 g), before dispersing agent
compound,measurement,setting,value
FC(F)(F)C(Cl)Br (stereo not drawn) [halothane],Octanol/water partition coefficient Po/w,[1],2.00 × 10^2
same,Log Po/w,[1],2.30
"CCCCCCCCCCCCCCCCC(F)(F)C(F)(F)C(F)(F)C(F)(F)C(F)(F)C(F)(F)C(F)(F)C(F)(F)F [Example F8H16, 1-(F-octyl)hexadecane]",critical micelle concentration,[2]; T=50° C.,about 0.05 mol/L
CC(=O)[C@@]1(O)CC[C@H]2[C@@H]3C[C@H](C)C4=CC(=O)C=C[C@]4(C)[C@@]3(F)[C@@H](O)C[C@@]21C [^3 H-fluorometholone],Octanol/water partition coefficient Po/w,[1],1.26 × 10^2
Clc1cccc(Cl)c1N=C1NCCN1 [^3 H-clonidine],Octanol/water partition coefficient Po/w,[1],25.1
CCCCCC [n-hexane],amount of hydrocarbon oil at which phase separation occurred,[3],1.70 mL
same,solubilization in F-Octanes,"[3]; with F8H16 (7.82%, w/v)","36.5 %, v/v"
CCCCNc1ccc(C(=O)OCCN(C)C)cc1 [tetracaine],Octanol/water partition coefficient Po/w,[1],79.4
CCCCCCCCCCCCCCC(F)(F)C(F)(F)C(F)(F)C(F)(F)C(F)(F)C(F)(F)F [Example F6H14],critical micelle concentration,[2]; T=25° C.,about 0.1 mol/L
CC(C)(C)NCC(O)COc1cccc2c1CCCC2=O (stereo not drawn) [^14 C-bunolol],Octanol/water partition coefficient Po/w,[1],2.51 × 10^2
CCCCC(CC)COC(=O)c1ccc(N(C)C)cc1 (stereo not drawn) [^14 C-padimate-o],Octanol/water partition coefficient Po/w,[1],3.98 × 10^6
COc1ccc(C(=O)CC(=O)c2ccc(C(C)(C)C)cc2)cc1 [^3 H-parsol 1789],Octanol/water partition coefficient Po/w,[1],5.0 × 10^6
same,Log Po/w,[1],6.7
COC(=O)c1ccccc1O [methyl salicylate],amount of hydrocarbon oil at which phase separation occurred,[3],0.01 to 0.02 mL
same,solubilization in F-Octanes,"[3]; with F6H14 (17.3%, w/v)","2.2 %, v/v"
